These results are taken from US20250221966A1, “RXFP1 AGONISTS” (BRISTOL-MYERS SQUIBB COMPANY, priority 2021, published 2025).

The structures appear in SMILES notation.

The target in the assay is T1, human RXFP1 (Homo sapiens, UniProt Q9HBX9).
T1 construct: expressed in transfected cells
T1 sequence (Q9HBX9 1-757): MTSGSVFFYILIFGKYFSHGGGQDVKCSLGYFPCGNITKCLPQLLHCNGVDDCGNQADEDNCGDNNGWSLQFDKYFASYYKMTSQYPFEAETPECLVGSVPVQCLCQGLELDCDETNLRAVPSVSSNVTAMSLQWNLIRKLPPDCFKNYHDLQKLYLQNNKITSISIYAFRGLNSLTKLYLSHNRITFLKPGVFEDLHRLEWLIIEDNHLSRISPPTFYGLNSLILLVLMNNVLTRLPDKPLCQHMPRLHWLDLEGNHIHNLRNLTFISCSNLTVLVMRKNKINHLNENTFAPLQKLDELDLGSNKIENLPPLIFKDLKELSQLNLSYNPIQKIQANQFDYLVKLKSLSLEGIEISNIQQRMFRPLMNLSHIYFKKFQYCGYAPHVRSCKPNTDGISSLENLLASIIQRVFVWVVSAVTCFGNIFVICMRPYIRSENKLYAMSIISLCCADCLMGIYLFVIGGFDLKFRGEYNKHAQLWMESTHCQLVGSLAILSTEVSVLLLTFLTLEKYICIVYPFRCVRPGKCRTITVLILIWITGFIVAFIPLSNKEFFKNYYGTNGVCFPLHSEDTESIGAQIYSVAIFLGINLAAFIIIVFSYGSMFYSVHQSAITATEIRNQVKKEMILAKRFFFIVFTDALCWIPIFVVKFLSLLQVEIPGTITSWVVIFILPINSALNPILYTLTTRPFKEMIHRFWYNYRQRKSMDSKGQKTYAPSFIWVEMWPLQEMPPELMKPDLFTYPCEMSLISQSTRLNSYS
Put plainly: RXFP1 cAMP assay (hRXFP1 HEK293 cAMP assay, HTRF). The format is cell-based. As to conditions: HEK293 cells stably expressing human RXFP1, 30 min at room temperature, read-out: cAMP hRXFP1 HEK293 Assay EC50. The gist of the method: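 Intracellular cAMP was read by HTRF, with potency fitted to a 4-parameter logistic curve. Compound exposure (0.010 nM–50 μM final, 2% DMSO) lasted 30 min at room temperature. Cells were hRXFP1-HEK293 at 1500 per well in IBMX-containing (0.5 mM) HEPES-buffered HBSS.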
As to `COc1ccc(C2=NOC3CC(C)(CO)CC23)cc1C(=O)N[C@H]1[C@@H](C(=O)Nc2ccc(F)c(C(F)(F)F)c2)[C@H]2CC[C@@H]1/C2=C\C1CC1` (some centres unmarked) [compound 736], the EC50 turned out to be 2.4 nM.
With `COc1ccc(C2=NOC3COCC23)cc1C(=O)N[C@H]1[C@@H](C(=O)Nc2ccc(F)c(C(F)(F)F)c2)[C@H]2CC[C@@H]1/C2=C\c1cscn1` (some centres unmarked) [compound 737] the figure was 3.2 nM; with `COc1cc(C)c(C2=NOC3CC(CO)CC23)cc1C(=O)N[C@H]1[C@@H](C(=O)Nc2ccc(F)c(C(F)(F)F)c2)[C@H]2CC[C@@H]1/C2=C\C1CC1` (some centres unmarked) [compound 738], 3.3 nM; with `COc1cc(C)c(C2=NOC3CC(CO)CC23)cc1C(=O)N[C@H]1[C@@H](C(=O)Nc2ccc(F)c(C(F)(F)F)c2)[C@H]2CC[C@@H]1C2CC1CC1` (some centres unmarked) [compound 739], 3.4 nM.
The same measure for `COc1cc(C)c(C2=NOC3CC(CO)CC23)cc1C(=O)N[C@H]1[C@@H](C(=O)Nc2ccc(F)c(C(F)(F)F)c2)[C@H]2CC[C@@H]1/C2=C\C1CC1` (some centres unmarked) [compound 740]: 3.4 nM; for `COc1ccc(C2=NOC3CC(CO)CC23)cc1C(=O)N[C@H]1[C@@H](C(=O)N[C@H](C)C2(C)CC2)[C@H]2CC[C@@H]1/C2=C\c1csc(C(F)F)n1` (some centres unmarked) [compound 741]: 1.7 nM; for `COc1ccc(C2=NOC3CC(CO)CC23)cc1C(=O)N[C@H]1[C@@H](C(=O)N[C@H](C)C2(C)CC2)[C@H]2CC[C@@H]1/C2=C\c1csc(C)n1` (some centres unmarked) [compound 742]: 4.7 nM.
The same measure for `COc1ccc(C2=NOC3CC(NC(=O)CO)CC23)cc1C(=O)N[C@@H]1C2CCC(/C2=C/C2CC2)[C@@H]1C(=O)Nc1ccc(F)c(C(F)(F)F)c1` (some centres unmarked) [compound 743]: 5 nM.
Take `COc1c(F)cc(C2=NOC(C)(CO)C2)cc1C(=O)N[C@H]1[C@@H](C(=O)N[C@H](C)C2(C)CC2)[C@H]2CC[C@@H]1/C2=C\C1CC1` (some centres unmarked) [compound 744]: the EC50 was found to be 2.5 nM.
The same measure for `COc1ccc(-c2cnn3c2COCC3)cc1C(=O)N[C@H]1[C@@H](C(=O)N[C@H](C)C2(C)CC2)[C@H]2CC[C@@H]1/C2=C\C1CC1` [compound 745]: 1.2 nM; for `COc1ccc(C2=NOC3CC(C)(CO)CC23)cc1C(=O)N[C@H]1[C@@H](C(=O)Nc2ccc(F)c(C(F)(F)F)c2)[C@H]2CC[C@@H]1/C2=C\C1CCCC1` (some centres unmarked) [compound 748]: 3.3 nM.
The same measure for `COc1ccc(C2=NOC3CC(C)(CO)CC23)cc1C(=O)N[C@H]1[C@@H](C(=O)Nc2ccc(F)c(C(F)(F)F)c2)[C@H]2CC[C@@H]1/C2=C\C1CCCC1` (some centres unmarked) [compound 749]: 3.3 nM.
The same measure for `COc1ccc(-c2ncc(CO)s2)cc1C(=O)N[C@H]1[C@@H](C(=O)Nc2ccc(F)c(C(F)(F)F)c2)[C@H]2CC[C@@H]1/C2=C\C1CCCC1` [compound 750]: 3.5 nM; for `COc1c(F)cc(-c2cnc3n2CC(O)CC3)cc1C(=O)N[C@H]1[C@@H](C(=O)Nc2ccc(F)c(C(F)(F)F)c2)[C@H]2CC[C@@H]1/C2=C\C1CC1` (some centres unmarked) [compound 751]: 2.2 nM.
With `COc1ccc(-c2cnc3n2CC(O)CC3)cc1C(=O)N[C@H]1[C@@H](C(=O)Nc2ccc(F)c(C(F)(F)F)c2)[C@H]2CC[C@@H]1/C2=C\C1CC1` (some centres unmarked) [compound 752], the EC50 came out at 2.5 nM.
Consider `COc1c(F)cc(-c2cnc3n2CC(O)CC3)cc1C(=O)N[C@H]1[C@@H](C(=O)Nc2ccc(F)c(C(F)(F)F)c2)[C@H]2CC[C@@H]1/C2=C\C1CC1` (some centres unmarked) [compound 753], for which the EC50 worked out at 3.3 nM.
With `COc1ccc(-c2cnc3n2CCC3O)cc1C(=O)N[C@H]1[C@@H](C(=O)Nc2ccc(F)c(C(F)(F)F)c2)[C@H]2CC[C@@H]1/C2=C\C1CC1` (some centres unmarked) [compound 754] the figure was 3.6 nM; with `COc1ccc(-c2cnc3n2CC(O)CC3)cc1C(=O)N[C@H]1[C@@H](C(=O)Nc2ccc(F)c(C(F)(F)F)c2)[C@H]2CC[C@@H]1/C2=C\C1CC1` (some centres unmarked) [compound 755], 5 nM.
With `COc1c(F)cc(C2=NOC3CC(CO)CC23)cc1C(=O)N[C@H]1[C@@H](C(=O)N[C@H](C)C2(C)CC2(F)F)[C@H]2CC[C@@H]1/C2=C\C1CC1` (some centres unmarked) [compound 756] the figure was 0.4 nM; with `COc1c(F)cc(C2=NOC3CC(CO)CC23)cc1C(=O)N[C@H]1[C@@H](C(=O)N[C@H](C)C2(C)CC2)[C@H]2CC[C@@H]1/C2=C\C1CC1` (some centres unmarked) [compound 757], 0.9 nM; with `C[C@@H](NC(=O)[C@@H]1[C@H](NC(=O)c2cc(C3=NOC4CC(CO)CC34)cc(F)c2OCC2CC2)[C@@H]2CC[C@H]1/C2=C/C1CC1)C1(C)CC1` (some centres unmarked) [compound 758], 0.9 nM.
For `COc1c(F)cc(C2=NOC3CC(CO)CC23)cc1C(=O)N[C@H]1[C@@H](C(=O)N[C@H](C)C2(C)CC2(F)F)[C@H]2CC[C@@H]1/C2=C\C1CC1` (some centres unmarked) [compound 759], the EC50 came out at 1 nM.
With `COc1ccc(C2=NOC3CC(C#N)CC23)cc1C(=O)N[C@H]1[C@@H](C(=O)N[C@H](C)C2(C)CC2)[C@H]2CC[C@@H]1/C2=C\C1CC1` (some centres unmarked) [compound 760] the figure was 1.2 nM; with `COc1ccc(C2=NOC3COCC23)cc1C(=O)N[C@H]1[C@@H](C(=O)Nc2ccc(F)c(OC(F)(F)F)c2)[C@H]2CC[C@@H]1/C2=C\C1CC1` (some centres unmarked) [compound 761], 1.9 nM; with `COc1ccc(C2=NOC3COCC23)cc1C(=O)N[C@H]1[C@@H](C(=O)Nc2cc(OC(F)(F)F)ccc2F)[C@H]2CC[C@@H]1/C2=C\C1CC1` (some centres unmarked) [compound 762], 2 nM.
The same measure for `O=C(N[C@H]1[C@@H](C(=O)NC23CC(F)(C2)C3)[C@H]2CC[C@@H]1/C2=C\C1CC1)c1cc(C2=NOC3CC(CO)CC23)cc(F)c1OCC1CC1` (some centres unmarked) [compound 763]: 2.1 nM; for `CC12CC(NC(=O)[C@@H]3[C@H](NC(=O)c4cc(C5=NOC6CC(CO)CC56)cc(F)c4OCC4CC4)[C@@H]4CC[C@H]3/C4=C/C3CC3)(C1)C2` (some centres unmarked) [compound 764]: 2.3 nM; for `COc1c(F)cc(C2=NOC3CC(CO)CC23)cc1C(=O)N[C@H]1[C@@H](C(=O)NCC(C)(C)C)[C@H]2CC[C@@H]1/C2=C\C1CC1` (some centres unmarked) [compound 765]: 2.5 nM.
With `COc1ccc(C2=NOC3CC(CO)CC23)cc1C(=O)N[C@H]1[C@@H](C(=O)N[C@H](C)C2(C)CC2)[C@H]2CC[C@@H]1/C2=C\C1CC1` (some centres unmarked) [compound 766] the figure was 2.7 nM; with `COc1ccc(C2=NOC3COCC23)cc1C(=O)N[C@H]1[C@@H](C(=O)Nc2cc(C(F)(F)F)c(F)cc2F)[C@H]2CC[C@@H]1/C2=C\C1CC1` (some centres unmarked) [compound 767], 3 nM; with `COc1ccc(C2=NO[C@@H]3C[C@H](CO)CN23)cc1C(=O)N[C@H]1[C@@H](C(=O)N[C@H](C)C2(C)CC2)[C@H]2CC[C@@H]1/C2=C\C1CC1` [compound 768], 3 nM.
Regarding `COc1ccc(C2=NOC3COCC23)cc1C(=O)N[C@H]1[C@@H](C(=O)N[C@H](C)C2(C)CCC2)[C@H]2CC[C@@H]1/C2=C\C1CC1` (some centres unmarked) [compound 769], the EC50 was determined as 3.3 nM.
The same measure for `COc1ccc(C2=NOC3COCC23)cc1C(=O)N[C@H]1[C@@H](C(=O)N[C@H](C)C2(C)CC2(F)F)[C@H]2CC[C@@H]1/C2=C\C1CC1` (some centres unmarked) [compound 770]: 3.6 nM.
With `COc1ccc(C2=NOC3COCC23)cc1C(=O)N[C@H]1[C@@H](C(=O)N[C@H](CF)C2(C)CC2)[C@H]2CC[C@@H]1/C2=C\C1CC1` (some centres unmarked) [compound 771] the figure was 3.8 nM; with `COc1c(F)cc(C2=NOC3CC(CO)CC23)cc1C(=O)N[C@@H]1C2CCC(/C2=C/C2CC2)[C@@H]1C(=O)NC12CC(C#N)(C1)C2` (some centres unmarked) [compound 772], 3.8 nM; with `COc1c(F)cc(C2=NOC3CC(CO)CC23)cc1C(=O)N[C@H]1[C@@H](C(=O)NC23CC(C)(C2)C3)[C@H]2CC[C@@H]1/C2=C\C1CC1` (some centres unmarked) [compound 773], 3.9 nM.
As to `COc1ccc(C2=NOC3CC(CO)CC23)cc1C(=O)N[C@H]1[C@@H](C(=O)NC23CC(C)(C2)C3)[C@H]2CC[C@@H]1/C2=C\C1CC1` (some centres unmarked) [compound 774], the EC50 is 4.1 nM.
The same measure for `COc1c(F)cc(C2=NOC3CC(CO)CC23)cc1C(=O)N[C@H]1[C@@H](C(=O)NC23CC(C#N)(C2)C3)[C@H]2CC[C@@H]1/C2=C\C1CC1` (some centres unmarked) [compound 775]: 4.4 nM; for `COc1c(F)cc(C2=NOC3CC(CO)CC23)cc1C(=O)N[C@H]1[C@@H](C(=O)N[C@H](C)C23CC(C2)C3)[C@H]2CC[C@@H]1/C2=C\C1CC1` (some centres unmarked) [compound 776]: 5 nM; for `COc1ccc(C2=NOC3COCC23)cc1C(=O)N[C@H]1[C@@H](C(=O)NC23CC(C#N)(C2)C3)[C@H]2CC[C@@H]1/C2=C\C1CC1` (some centres unmarked) [compound 777]: 13.9 nM.
As for `COCCCOc1c(F)cc(C2=NOC3COCC23)cc1C(=O)N[C@H]1[C@@H](C(=O)Nc2ccc(F)c(C(F)(F)F)c2)[C@H]2CC[C@@H]1/C2=C\C1CC1` (some centres unmarked) [compound 778], the EC50 is 1.1 nM.

In general, EC50 refers to the concentration needed to bring the measured effect to its halfway point.
